Measured values reported in ChEMBL document CHEMBL5727253, “Tricyclic compounds and compositions as kinase inhibitors” (2019).
Where “and” joins values, the source holds several entries; their conditions need not be identical. Identical values can stand only once.

Test: Biological Assays: The activity of a compound according to the present invention can be assessed by well-known in vitro & in vivo methods. […] CRAF cDNA was subcloned as full length protein, with Y340E and Y341E activating mutations, into a baculovirus expression vector for Sf9 insect cell expression. h14-3-3 zeta cDNA was subcloned into a baculovirus expression vector for SF9 insect cell expression. Sf9 cells co-expressing both proteins were lysed and subjected to immobilized nickel chromatography and eluted with Imidazole. A second column (StrepII binding column) was used and eluted with desthiobiotin. Protein Tags were removed using Prescission enzyme and the protein was further purified using a flowthrough step to remove tags.C-Raf TR refers to a truncated C-Raf protein, a Δ1-324 deletion mutant. C-Raf FL refers to the full-length C-Raf protein.Full length MEK1 with an inactivating K97R ATP binding site mutation is utilized as a RAF substrate. The MEK1 cDNA was subcloned with an N-terminal (his)6 tag into a vector for E. Coli expression. The MEK1 substrate was purified from E. Coli lysate by nickel affinity chromatography followed by anion exchange. The final MEK1 preparation was biotinylated (Pierce EZ-Link Sulfo-NHS-LC-Biotin) and concentrated.Assay Materials: Assay buffer is 50 mM Tris, pH 7.5, 15 mM MgCl2, 0.01% Bovine Serum Albumin (BSA) and 1 mM dithiothreitol (DTT); Stop buffer is 60 mM ethylenediaminetetraacetic acid (EDTA) and 0.01% Tween® 20; b-Raf (V600E), active; biotinylated Mek, kinase dead; Alpha Screen detection kit (available from PerkinElmer™, #6760617R); Anti phospho-MEK1/2 (available from Cell Signaling Technology, Inc. #9121); 384 well low volume assay plates (White Greiner® plates).Assay conditions: b-Raf (V600E) approximately 4 pM; c-Raf approximately 4 nM; biotinylated Mek, kinase dead approximately 10 nM; ATP 10 μM for BRAF (V600E) and 1 μM for CRAF; Pre-incubation time with compounds 60 minutes at room temperature; Reaction time 1 or 3 hours at room temperature.Assay protocol: Raf and biotinylated Mek (kinase dead) were combined at 2× final concentrations in assay buffer (50 mM Tris, pH 7.5, 15 mM MgCl2, 0.01% BSA and 1 mM DTT) and dispensed […] per well in assay plates (Greiner white 384 well assay plates #781207) containing […] of 40× of a Raf kinase inhibitor test compound diluted in 100% DMSO. The plate was incubated for 60 minutes at room temperature. The Raf kinase activity reaction was started by the addition of […] per well of 2×ATP diluted in assay buffer. After 3 hours (b-Raf(V600E)) or 1 hour (c-Raf). The reactions were stopped and the phosphorylated product was measured using a rabbit anti-p-MEK (Cell Signaling, #9121) antibody and the Alpha Screen IgG (ProteinA) detection Kit (PerkinElmer #6760617R), by the addition of […] to the well of a mixture of the antibody (1:2000 dilution) and detection beads (1:2000 dilution of both beads) in Stop/bead buffer (25 mM EDTA, 50 mM Tris, pH 7.5, 0.01% Tween20). The additions were carried out under dark conditions to protect the detection beads from light. A lid was placed on top of the plate and incubated for 1 hour at room temperature, after which the luminescence was read on a PerkinElmer Envision instrument.
Assay type: biochemical

| SMILES | IC50 |
| --- | --- |
| CC[C@H]1Cc2nnc(-c3cc(NC(=O)c4ccnc(C(C)(F)F)c4)ccc3C)cc2N2CCOC[C@H]12 | 0.2 nM |
| CC[C@H]1Cc2nnc(-c3cc(NC(=O)c4ccnc(C(C)(F)F)c4)ccc3C)cc2N2CCOC[C@@H]12 | 0.1 nM |
| CC[C@@H]1Cc2nnc(-c3cc(NC(=O)c4ccnc(C(C)(F)F)c4)ccc3C)cc2N2CCOC[C@H]12 | 0.1 nM |
| Cc1ccc(NC(=O)c2ccnc(C(C)(F)F)c2)cc1-c1ccc2c(c1)N1CCOC[C@H]1[C@@](C)(N)C2 | 0.61 nM |
| Cc1ncc(NC(=O)c2cccc(C(F)(F)F)c2)cc1-c1cnc2c(c1)N1CCOC[C@H]1[C@](F)(CO)C2 | 1.1 nM |
| CNC(=O)C1Cc2ccc(-c3cc(NC(=O)c4ccnc(C(F)(F)F)c4)ccc3C)cc2N2CCOC[C@@H]12 (some centres not stated) | 0.032 nM and 0.027 nM |
| Cc1ccc(NC(=O)c2ccnc(C(C)(F)F)c2)cc1-c1ccc2c(c1)N1CCOC[C@@H]1[C@](C)(N)C2 | 0.025 nM |
| CNC(=O)C1Cc2ccc(-c3cc(NC(=O)c4ccnc(C(F)(F)F)c4)ccc3C)cc2N2CCOC[C@H]12 (some centres not stated) | 0.028 nM and 0.014 nM |
| CNC(=O)[C@@H]1Cc2ccc(-c3cc(NC(=O)c4ccnc(C(F)(F)F)c4)ccc3C)cc2N2CCOC[C@H]12 | 0.13 nM |
| Cc1ccc(NC(=O)c2ccnc(C(F)(F)F)c2)cc1-c1cnc2c(c1)N1CCOCC1[C@H](CO)C2 (mixture of isomers) | 0.005 nM |
| Cc1ccc(NC(=O)c2ccnc(C(F)(F)F)c2)cc1-c1cnc2c(c1)N1CCOCC1C(CS(C)(=O)=O)C2 (racemic) | 0.038 nM |
| Cc1ncc(NC(=O)c2cccc(C(F)(F)F)c2)cc1-c1ccc2c(c1)N1CCOCC1CC2O (racemic) | 0.01 nM |
